Reference: ChEMBL document CHEMBL1153976, “Synthesis and cytotoxicity of 2-cyano-28-hydroxy-lup-1-en-3-ones” (Bioorg Med Chem Lett, 2009)

Experiments:
Daoy = experiment: Antiproliferative activity against human DaOY cells after 72 hrs by MTS assay; type: cell-based
HT-29 = experiment: Antiproliferative activity against human HT-29 cells after 72 hrs by MTS assay; type: functional, cell-based; conditions: HT-29, 72 h
SK-MEL-2 [1] = experiment: Antiproliferative activity against human SK-MEL-2 cells after 72 hrs by MTS assay; type: functional, cell-based; conditions: SK-MEL-2, 72 h
OVCAR-3 = experiment: Antiproliferative activity against human OVCAR-3 cells after 120 hrs by MTS assay; type: functional, cell-based; conditions: OVCAR-3, 120 h
MCF7 = experiment: Antiproliferative activity against human MCF7 cells after 72 hrs by MTS assay; type: functional, cell-based; conditions: MCF7, 72 h
A-375 = experiment: Antiproliferative activity against human A375 cells after 72 hrs by MTS assay; type: functional, cell-based; conditions: A-375, 72 h
[2] = Antiproliferative activity against human LN229 cells after 72 hrs by MTS assay; type: functional, cell-based; conditions: LN-229, 72 h
SK-MEL-2 [3] = experiment: Induction of apoptosis in human SK-MEL-2 cells assessed as increase in caspase activation at 50 uM after 8 hrs by homogenous assay relative to control; type: functional
SK-MEL-2 [4] = experiment: Induction of apoptosis in human SK-MEL-2 cells assessed as increase in caspase activation at 5 uM after 8 hrs by homogenous assay relative to control; type: functional
SK-MEL-2 [5] = experiment: Induction of apoptosis in human SK-MEL-2 cells assessed as apoptotic cells at 50 uM after 8 hrs by annexin V assay; type: functional
SK-MEL-2 [6] = experiment: Induction of apoptosis in human SK-MEL-2 cells assessed as apoptotic cells at 50 uM after 8 hrs by annexin V assay in presence of z-VAD; type: functional
SK-MEL-2 [7] = experiment: Induction of apoptosis in human SK-MEL-2 cells assessed as necrotic cells at 50 uM after 8 hrs by annexin V assay; type: functional
SK-MEL-2 [8] = experiment: Induction of apoptosis in human SK-MEL-2 cells assessed as necrotic cells at 50 uM after 8 hrs by annexin V assay in presence of z-VAD; type: functional

SMILES | IC50 (Daoy) [µM] | IC50 (HT-29) [µM] | IC50 (SK-MEL-2 [1]) [µM] | IC50 (OVCAR-3) [µM] | IC50 (MCF7) [µM] | IC50 (A-375) [µM] | IC50 [2] [µM] | fold change (FC) (SK-MEL-2 [3]) | Activity (SK-MEL-2 [4]) [%] | Activity (SK-MEL-2 [5]) [%] | Activity (SK-MEL-2 [6]) [%] | Activity (SK-MEL-2 [7]) [%] | Activity (SK-MEL-2 [8]) [%] | fold change (FC) (SK-MEL-2 [4])
CC(C)[C@@H]1CC[C@]2(CO)CC[C@]3(C)[C@H](CC[C@@H]4[C@@]5(C)C=C(C#N)C(=O)C(C)(C)[C@@H]5CC[C@]43C)[C@@H]12 | 9 | 7 | 6 | 8 | > 75 | 4 |  |  |  |  |  |  |  | 
CC(C)[C@@H]1CC[C@]2(C(=O)O)CC[C@]3(C)[C@H](CC[C@@H]4[C@@]5(C)C=C(C#N)C(=O)C(C)(C)[C@@H]5CC[C@]43C)[C@@H]12 | 71 | 18 | 59 | 24 | 59 | 16 | 30 |  |  |  |  |  |  | 
C=C(C)[C@@H]1CC[C@]2(C=O)CC[C@]3(C)[C@H](CC[C@@H]4[C@@]5(C)C=C(C#N)C(=O)C(C)(C)[C@@H]5CC[C@]43C)[C@@H]12 | 13 | 49 | 40 | > 75 | > 75 | 7 | > 75 |  |  |  |  |  |  | 
C=C(C)[C@@H]1CC[C@]2(C(=O)O)CC[C@]3(C)[C@H](CC[C@@H]4[C@@]5(C)C=C(C#N)C(=O)C(C)(C)[C@@H]5CC[C@]43C)[C@@H]12 | > 75 | 38 | > 75 | > 75 | > 75 | > 75 | 18 |  |  |  |  |  |  | 
CC(C)[C@@H]1CC[C@]2(CO)CC[C@]3(C)[C@H](CC[C@@H]4[C@@]5(C)Cc6cnoc6C(C)(C)[C@@H]5CC[C@]43C)[C@@H]12 | 7 | 75 | 8 | 75 | > 75 | 10 | > 75 |  |  |  |  |  |  | 
C=C(C)[C@@H]1CC[C@]2(CO)CC[C@]3(C)[C@H](CC[C@@H]4[C@@]5(C)CC(C#N)C(=O)C(C)(C)[C@@H]5CC[C@]43C)[C@@H]12 (some centres undefined) | 44 | 72 | 42 | > 75 | 68 | > 75 | > 75 |  |  |  |  |  |  | 
C=C(C)[C@@H]1CC[C@]2(C(=O)O)CC[C@]3(C)[C@H](CC[C@@H]4[C@@]5(C)CC[C@H](O)C(C)(C)[C@@H]5CC[C@]43C)[C@@H]12 [BETULINIC ACID] | 31 | 37 | 33 | 59 | 50 | 51 | 61 | 2.6 | 70 |  |  |  |  | 
C=C(C)[C@@H]1CC[C@]2(COC3CCCCO3)CC[C@]3(C)[C@H](CC[C@@H]4[C@@]5(C)CC(C#N)C(=O)C(C)(C)[C@@H]5CC[C@]43C)[C@@H]12 (some centres undefined) | 29 | > 75 | 19 | > 75 | 25 | 38 | > 75 |  |  |  |  |  |  | 
C=C(C)[C@@H]1CC[C@]2(CO)CC[C@]3(C)[C@H](CC[C@@H]4[C@@]5(C)C=C(C#N)C(=O)C(C)(C)[C@@H]5CC[C@]43C)[C@@H]12 | 8 | 8 | 7 | 7 | 25 | 6 | 6 | 8 |  | 24 | 7 | 3 | 4 | 2
CC(C)[C@@H]1CC[C@]2(COC3CCCCO3)CC[C@]3(C)[C@H](CC[C@@H]4[C@@]5(C)CC(C#N)C(=O)C(C)(C)[C@@H]5CC[C@]43C)[C@@H]12 (some centres undefined) | 21 | > 75 | 25 |  | > 75 | 48 | 45 |  |  |  |  |  |  | 
C=C(C)[C@@H]1CC[C@]2(COC3CCCCO3)CC[C@]3(C)[C@H](CC[C@@H]4[C@@]5(C)C=C(C#N)C(=O)C(C)(C)[C@@H]5CC[C@]43C)[C@@H]12 (some centres undefined) | 14 | > 75 | 23 | > 75 | > 75 | 12 | 21 |  |  |  |  |  |  | 
C=C(C)[C@@H]1CC[C@]2(CO)CC[C@]3(C)[C@H](CC[C@@H]4[C@@]5(C)Cc6cnoc6C(C)(C)[C@@H]5CC[C@]43C)[C@@H]12 | 8 | 10 | 8 | 60 | 25 |  | > 75 |  |  |  |  |  |  | 
